From patent publication US20150225377A1, “VEGFR3 INHIBITORS” (CANCER THERAPEUTICS CRC PTY LIMITED, priority 2012, published 2015)

Target: T1, VEGFR2 (Homo sapiens, UniProt P35968)
T1 construct: host or cells: HUVEC
Assay: VEGFR2 Phospho ELISA assay in HUVEC, VEGF stimulated
Format: cell-based
Conditions: 1 hour compound, 50 ng/mL VEGF 10 minutes
Method: Adult human umbilical vein endothelial cells (HUVEC) (Cat#CC-2519, Lonza) were seeded into clear-bottom, TC treated 12 well plates (Cat #665180, Greiner Bio-One) in EGM-2 (Cat#CC-3162, Lonza) at 180,000 cells/well (volume 1 mL), and the plates incubated at 37° C. and 5% CO2 for 6 hours. The media was replaced with EBM-2 (Cat #CC-3156, Lonza)+0.1% BSA (Cat#A8412, Sigma) and cells incubated for a further period (overnight at 37° C. and 5% CO2).
96 well Maxisorp immuno plates (Cat #439454, Nunc) were coated with 100 μL of Total VEGFR^2 capture antibody (Part #841434, Human Total VEGFR^2/FLT4 ELISA Kit, Cat #DYC1780, R&D Systems), or Phospho VEGFR^2 Capture antibody (Part #841419, Human Phospho VEGFR^2/FLT4 ELISA Kit, Cat#DYC1766, R&D Systems). The plates were covered and incubated at room temperature overnight.
The coating antibody was flicked out and the plates washed three times with Wash Buffer (Phosphate buffered saline (137 mM NaCl, […], […], […], pH 7.2-7.4), 0.05% Tween 20). 300 μL of Blocking buffer (1% v/v BSA (Cat#A8412, Sigma) in PBS) was then added to wells and plate incubated for 2 hours at room temperature. Blocking solution is flicked out and plates washed three times and tapped dry.
Compound dilution series were prepared in EBM-2 (Cat #CC-3156, Lonza)+0.1% BSA (Cat#A8412, Sigma) with constant 0.1% DMSO concentration. 427.5 μL of sample or vehicle control was added to the cell monolayers. Cells are treated for 1 hour at 37° C. and 5% CO2. 50 ng/mL Recombinant human VEGF (Cat #293-VC, R & D Systems) added to wells and plates incubated for an additional 10 minutes at 37° C. and 5% CO2.
The media and compounds were removed and the cell monolayer washed once in Dulbecco's Phosphate Buffered Saline (Cat #21600-044, Invitrogen). 130 μL of Lysis buffer added to wells and cell lysate harvested and transferred to tubes and stored on ice. Complete lysis buffer was prepared by adding 10 μL Protease Inhibitor Cocktail (Cat #P8340, Sigma-Aldrich), 10 μL PMSF (Phenylmethanesulfonyl fluoride, Cat #P7626, Sigma-Aldrich, prepared as 500 mM DMSO stock) per 1 mL of Phosphosafe™ Extraction Reagent (Cat #71296, Merck).
The harvested samples were then diluted 1:2 in IC Diluent #12 (1% NP-40, […] (pH 8.0), 137 mM NaCl, 10% glycerol, 2 mM EDTA, 1 mM activated sodium orthovanadate) and 100 μL transferred to the Total and Phospho VEGFR^2 coated, blocked and washed 96 well plates and incubated for 2 hours at room temperature. The plates were then washed three times in wash buffer as described above and tapped dry.
For detection of Total VEGFR^2100 μL of Detection antibody (Total VEGFR^2 Detection Antibody Part#841435 in Total VEGFR^2 kit) diluted in IC Diluent #14 (20 mM Tris, […], 0.05% Tween20, 0.1% BSA) was added to wells and the plate incubated for 2 hours at room temperature. The plate was then washed three times in wash buffer and tapped dry. 100 μL of streptavidin-HPR diluted in IC diluent #14 Streptavidin-HRP, Part #890803 in Total VEGFR^2 kit) was added to wells and incubated at room temperature for 20 minutes followed by washing as described above. 100 μL Substrate solution (3,3′,5,5′-Tetramethylbenzidine (TMB) Liquid Substrate System for ELISA, Cat #T0440, Sigma-Aldrich) was added and the plate incubated for 20 minutes in the dark at room temperature followed by the addition of 50 μL stop solution (2 M H2SO4).
Total VEGFR^2 levels were quantified using a Multiskan Ascent plate reader and Ascent software fitted with 450 nm filter.
For detection of Phospho VEGFR^2, 100 μL of Detection antibody (Anti-Phospho-Tyrosine-HRP Detection Antibody, Part #841403 in Phospho VEGFR^2 kit) was diluted in IC Diluent 14 (20 mM Tris, […], 0.05% Tween20, 0.1% BSA), was added to the wells and the plate incubated for 2 hours at room temperature. The plate was then washed three times in wash buffer as described above and tapped dry. […]

T1 sequence (P35968 20-1356): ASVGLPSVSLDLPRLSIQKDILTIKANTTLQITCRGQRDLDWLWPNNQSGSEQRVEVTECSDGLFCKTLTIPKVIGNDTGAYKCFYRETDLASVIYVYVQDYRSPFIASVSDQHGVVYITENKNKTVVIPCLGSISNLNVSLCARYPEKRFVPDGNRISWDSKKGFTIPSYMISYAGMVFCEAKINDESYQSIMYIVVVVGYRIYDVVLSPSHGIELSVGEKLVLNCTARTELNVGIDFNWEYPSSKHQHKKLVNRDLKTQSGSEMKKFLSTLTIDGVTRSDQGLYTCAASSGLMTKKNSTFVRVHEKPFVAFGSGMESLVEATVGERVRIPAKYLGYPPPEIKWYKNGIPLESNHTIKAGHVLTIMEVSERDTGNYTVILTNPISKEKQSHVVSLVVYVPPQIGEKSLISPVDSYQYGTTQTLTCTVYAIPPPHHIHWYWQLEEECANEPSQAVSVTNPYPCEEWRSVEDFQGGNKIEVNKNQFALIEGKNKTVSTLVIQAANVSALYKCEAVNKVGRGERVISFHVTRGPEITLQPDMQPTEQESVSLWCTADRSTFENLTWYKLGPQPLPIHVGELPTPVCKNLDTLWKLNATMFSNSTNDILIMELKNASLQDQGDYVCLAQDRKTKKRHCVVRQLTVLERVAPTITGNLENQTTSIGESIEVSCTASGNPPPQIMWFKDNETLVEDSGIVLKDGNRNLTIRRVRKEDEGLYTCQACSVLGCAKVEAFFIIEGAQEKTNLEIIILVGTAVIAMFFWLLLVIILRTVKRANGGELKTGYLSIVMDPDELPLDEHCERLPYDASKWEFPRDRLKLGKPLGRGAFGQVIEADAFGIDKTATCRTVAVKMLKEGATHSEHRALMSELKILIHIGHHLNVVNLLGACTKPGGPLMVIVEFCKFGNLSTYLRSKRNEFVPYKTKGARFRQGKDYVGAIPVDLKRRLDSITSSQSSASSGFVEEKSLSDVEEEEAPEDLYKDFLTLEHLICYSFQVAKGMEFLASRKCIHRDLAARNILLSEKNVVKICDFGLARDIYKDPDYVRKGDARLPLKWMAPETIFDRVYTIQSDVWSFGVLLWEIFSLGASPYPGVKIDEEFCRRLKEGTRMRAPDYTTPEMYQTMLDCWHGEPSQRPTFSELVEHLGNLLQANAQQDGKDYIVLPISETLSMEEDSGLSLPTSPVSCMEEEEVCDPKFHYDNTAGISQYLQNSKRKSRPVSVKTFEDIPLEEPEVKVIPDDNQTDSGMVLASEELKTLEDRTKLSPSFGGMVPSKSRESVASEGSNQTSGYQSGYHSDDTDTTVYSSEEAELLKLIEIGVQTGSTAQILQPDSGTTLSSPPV

`Cc1cnc(Nc2ccc(N3CCNCC3)cc2)nc1CCc1ccccc1CC(N)=O` [Compound 2, 2-(2-(2-(5-methyl-2-((4-(piperazin-1-yl)phenyl)amino)pyrimidin-4-yl)ethyl)phenyl)acetamide] and `Cc1cnc(Nc2ccc(OC3CCNCC3)cc2)nc1CCc1ccccc1CC(N)=O` [Compound 26, 2-(2-(2-(5-methyl-2-((4-(piperidin-4-yloxy)phenyl)amino)pyrimidin-4-yl)ethyl)phenyl)acetamide] are within 1.5-fold of each other in IC50: 4400 nM for the first, 4070 nM for the second.

`Cc1cnc(Nc2ccc(C3CCNCC3)nc2)nc1CCc1ccccc1CC(N)=O` [Compound 4, 2-(2-(2-(5-methyl-2-((6-(piperidin-4-yl)pyridin-3-yl)amino)pyrimidin-4-yl)ethyl)phenyl)acetamide] and `Cc1cnc(Nc2cnn(C3CCNCC3)c2)nc1CCc1ccccc1CC(N)=O` [Compound 33, 2-(2-(2-(5-Methyl-2-((1-(piperidin-4-yl)-^1H-pyrazol-4-yl)amino)pyrimidin-4-yl)ethyl)phenyl)acetamide] cannot be ordered by IC50: > 10000 nM for the first, > 10000 nM for the second.

Compared with `CC(N)c1ccc(Nc2ncc(C(F)(F)F)c(CCc3ccccc3CC(N)=O)n2)cc1` (stereo not drawn) [Compound 18, 2-(2-(2-(2-(4-(1-aminoethyl)phenylamino)-5-(trifluoromethyl)pyrimidin-4-yl)ethyl)phenyl)acetamide], `CC(N)c1ccc(Nc2ncc(Cl)c(CCc3ccccc3CC(N)=O)n2)cc1` (stereo not drawn) [Compound 37, 2-(2-(2-(2-(4-(1-aminoethyl)phenylamino)-5-chloropyrimidin-4-yl)ethyl)phenyl)acetamide] is 13-fold lower in IC50: 2550 nM for the first, 200 nM for the second.

Compared with `Cc1cnc(Nc2cccnc2)nc1CCc1ccccc1CC(N)=O` [Compound 24, 2-(2-(2-(5-methyl-2-(pyridin-3-ylamino)pyrimidin-4-yl)ethyl)phenyl)acetamide], `Cc1cnc(Nc2cnn(C)c2)nc1CCc1ccccc1CC(N)=O` [Compound 28, 2-(2-(2-(5-methyl-2-((1-methyl-^1H-pyrazol-4-yl)amino)pyrimidin-4-yl)ethyl)phenyl)acetamide] is lower in IC50: > 10000 nM for the first, 6840 nM for the second.

`Cc1cnc(Nc2ccc(C3(N)COC3)cc2)nc1CCc1ccccc1CC(N)=O` [Compound 31, 2-(2-(2-(2-(4-(3-aminooxetan-3-yl)phenylamino)-5-methylpyrimidin-4-yl)ethyl)phenyl)acetamide] gave an IC50 of 5100 nM.
